Data as given in EP0076713B1, “Aminomethyl-1H-indole-4-methanol derivatives and their salts, process and intermediates for their preparation, their use as medicines and compositions containing them” (ROUSSEL-UCLAF, priority 1981, dated 1983).
Where a name gives a salt, the structure may show the parent alone.

Legend:
Format in all cases: in vivo
souris = assay: Acute toxicity, oral administration in mice
Excerpt: On a évalué les doses létales DLo des différents composés testés après administration par voie orale chez la souris.
On apelle DLo la dose maximale ne provoquant aucune mortalité en 8 jours.

[1] = system: rats mâles de souche WISTAR; assay: Hypotensive activity in anaesthetised rats (carotid arterial pressure, intravenous administration); settings: relative to initial control pressure
Description: A) Détermination de l'activité hypotensive L'activité hypotensive a été étudiée sur des rats mâles de souche WISTAR pensant 300 g environ et anesthésiés au nembutal (50 mg/kg par voie intraveineuse).
Le produit testé a été administré par voie intraveineuse dans la veine jugulaire.
La pression artérielle carotidienne a été mesurée avant et après administration du produit testé.
Le tableau ci-après indique les variations exprimées en pourcentage de la pression artérielle après administration du produit testé par rapport à la pression artérielle témoin initiale: […]

[2] = system: rats mâles spontanément hypertendus (souche Okamoto); assay: Antihypertensive activity in spontaneously hypertensive rats (tail arterial pressure, oral administration); settings: 1 mg/kg oral, relative to initial control pressure; for Variation % de la pression arterielle 1 heure après l'administration: 1 hour; for Variation % de la pression arterielle 4 heures après l'administration: 4 hours
Excerpt: L'action antihypertensive a été étudiée sur des rats mâles spontanément hypertendus (souche Okamoto) âgés de 20 semaines pesant 300 à 320g.
Le produit a été administré par voie orale 48 heures après la pose d'un cathéter intracarotidien.
La pression artérielle a été mesurée à la queue du rat au moyen d'un manchon pneumatique et à l'aide d'un transducteur piezo-électrique de pression. La pression a été mesurée avant et une heure, quatre heures et vingt-quatre heures après l'administration du produit.
Le tableau ci-après indique les variations exprimées en pourcentages de la pression artérielle, après administration du produit, par rapport à la pression témoin initiale.

[3] = system: ulcéres au niveau de l'estomac, par ligature du pylore; assay: Antiulcer activity, Shay technique (gastric ulcers induced by pylorus ligation); settings: pylorus-ligated rats, about 16 hours after treatment
Excerpt: La technique utilisée est décrite par SHAY et al dans Gastroenterology, 5, 43 (1945).
La technique de SHAY consiste à induire chez ez des rats des ulcéres au niveau de l'estomac, par ligature du pylore.
Les animaux sont anesthésiés à l'éther. Une incision longitudinale est faite 1 cm environ au-dessous du sternum, la partie glandulaire de l'estomac et le duodénum sont mis à jour et une ligature est posée quelques mm au-dessous du pylore. Le plan musculaire est laissé tel quel et la peau est suturée par deux agrafes.
Les animaux reçoivent aussitôt après le dispersif ou la substance à étudier, par voie buccale, sous un volume de 0,5 ml/100 g, et sont maintenus sans nourriture ni boisson, jusqu'au sacrifice par saignée carotidienne qui a lieu environ 16 heures après le traitement.
Avant de prélèver l'estomac, une ligature est possé au-dessus du cardia.
Le liquide gastrique est recueilli afin d'en mesure le pH.
L'estomac est ensuite ouvert selon la grande courbure, rincé dans le sérum physiologique et étalé sur du papier millimétrique pour être examiné sous la loupe binoculaire.
On évalue macroscopiquement la gravité des lésions qui est côtée de 0 à 4 pour chaque estomac.
On détermine pour chaque lot de rat, l'intensité moyenne des ulcérations et on calcule la protection en rapportant l'index moyen du groupe à l'index moyen du groupe témoin.
On détermine également les valeurs de pH du liquide gastrique pour les animaux traités et les animaux témoins.

[4] = oral, mice, maximal dose causing no mortality in 8 days
[5] = dose −0,1 mg/kg [sic], intravenous

Compound | DLo (souris; [4]) [mg/kg] | Variation % de la pression arterielle 10 minutes après l'administration ([1]; 0,1 mg/kg intravenous) [%] | Variation % de la pression arterielle 1 minute après l'administration ([1]; 0,1 mg/kg intravenous) [%] | Variation % de la pression arterielle 5 minutes après l'administration ([1]; 0,1 mg/kg intravenous) [%] | Variation % de la pression arterielle 30 minutes après l'administration ([1]; 0,1 mg/kg intravenous) [%] | Variation % de la pression arterielle 1 minute après l'administration ([1]; 1 mg/kg intravenous) [%] | Variation % de la pression arterielle 5 minutes après l'administration ([1]; 1 mg/kg intravenous) [%] | Variation % de la pression arterielle 10 minutes après l'administration ([1]; 1 mg/kg intravenous) [%] | Variation % de la pression arterielle 30 minutes après l'administration ([1]; 1 mg/kg intravenous) [%] | Variation % de la pression arterielle 1 minute après l'administration ([1]; 10 mg/kg intravenous) [%] | Variation % de la pression arterielle 5 minutes après l'administration ([1]; 10 mg/kg intravenous) [%] | Variation % de la pression arterielle 10 minutes après l'administration ([1]; 10 mg/kg intravenous) [%] | Variation % de la pression arterielle 30 minutes après l'administration ([1]; 10 mg/kg intravenous) [%] | DLo (souris; mouse, in vivo, po, 11520 min) [mg/kg] | other results
NCC(O)c1cccc2[nH]ccc12 (stereo not drawn) [Exemple 1, Fumaratede 1α-(aminométhyl)-1H-indole-4-méthanol] | >1000 |  |  |  |  |  |  |  |  |  |  |  |  |  | 
CNCC(O)c1cccc2[nH]ccc12 (centres unmarked) [Exemple 3, a-(méthylamino)méthyl-1 H-indole-4-méthanol] | 600 | −5 |  |  |  |  |  |  |  |  |  |  |  |  | Variation % de la pression arterielle 1 minute après l'administration [1, 5]: +19%; Variation % de la pression arterielle 5 minutes après l'administration [1, 5]: −4%; Variation % de la pression arterielle 30 minutes après l'administration [1, 5]: −9%
CC(C)NCC(O)c1cccc2c1CCN2 (stereo not drawn) [Exemple 5, α-[[(1-méthyléthyl)amino]méthyl]2,3-dihydro-1H-indole-4-méthanol] | 200 | −26 | −24 | −28 | −22 | −20 | −19 | −17 | −14 |  |  |  |  |  | Variation % de la pression arterielle 1 heure après l'administration [2]: −27%; Variation % de la pression arterielle 4 heures après l'administration [2]: −24%; Variation % de la pression arterielle 24 heures après l'administration ([2]; 24 hours): −17%; Ulcération % de protection par rapport aux témoins ([3]; 0,4 mg/kg oral): 60%; pH du liquide gastrique animaux traités ([3]; 0,4 mg/kg oral, controls pH 2,2): 2,5; Ulcération % de protection par rapport aux témoins ([3]; 0,08 mg/kg oral): 66%; pH du liquide gastrique animaux traités ([3]; 0,08 mg/kg oral, controls pH 2,2): 2,6; Ulcération % de protection par rapport aux témoins ([3]; 2 mg/kg oral): 90%; pH du liquide gastrique animaux traités ([3]; 2 mg/kg oral, controls pH 2): 2,6
CNCC(O)c1cccc2c1CCN2 (centres unmarked) [Exemple 6, a-(méthylamino)métyl-2,3-dihydro-1 H-indole-4-méthanol] | > 400 |  |  |  |  |  |  |  |  |  |  |  |  |  | 
OC(CNCc1ccccc1)c1cccc2[nH]ccc12 (centres unmarked) [Exemple 8, Oxalate acidede 1'a[[(phénylméthyl)amino]méthyl]-1 H-indole-4-méthanol] | 100 |  |  |  |  | −9 | −8 | −6 | −10 | −38 | −21 | −21 | −15 |  | 
OC(CNCCc1ccccc1)c1cccc2[nH]ccc12 (centres unmarked) [Exemple 9, Oxalate acidede 1'a-[[(2-phényléthyl)amino]méthyl]-1 H-indole-4-méthanol] |  |  |  |  |  | −13 | −11 | −4 | −3 | −48 | −44 | −37 | −33 | 80 | 
OC(CNCC(O)c1cccc2[nH]ccc12)COc1ccccc1 (centres unmarked) [Exemple 10, a-[[(2-hydroxy-3-phénoxy-propyl)amino]méthyl]-1H-indole-4-méthanol] |  |  |  |  |  | −32 | −14 | −15 | −13 |  |  |  |  | > 400 | 
CCCNCC(O)c1cccc2[nH]ccc12 (centres unmarked) [Exemple 11, Oxalatede 1'a[[(1-propyl)amino]méthyl]-1H-indole-4-méthanol] | 100 | −12 | −11 | −12 | −13 | −22 | −33 | −33 | −30 |  |  |  |  |  | Ulcération % de protection par rapport aux témoins ([3]; 1 mg/kg oral): 48%; pH du liquide gastrique animaux traités ([3]; 1 mg/kg oral, controls pH 3,3): 3,2; Ulcération % de protection par rapport aux témoins ([3]; 5 mg/kg oral): 63%; pH du liquide gastrique animaux traités ([3]; 5 mg/kg oral, controls pH 3,0): 2,9
Oxalate neutre de 1'a[[(1-méthyléthyl)amino]méthyl]-1H-indole-4-méthanol [Exemple 2] |  | −30 | −36 | −28 | −27 | −41 | −38 | −29 | −20 |  |  |  |  | 200 | Variation % de la pression arterielle 1 heure après l'administration [2]: −22%; Variation % de la pression arterielle 4 heures après l'administration [2]: −21%
oxalate neutre de 1'a-[[(1-éthylpropyl)amino]méthyl]-1 H-indole-4-méthanol [Exemple 7] |  |  |  |  |  |  |  |  |  | −59 | −56 | −50 | −35 | 80 | 
